Target: H1047R PIK3CA enzyme (Homo sapiens, UniProt P42336, H1047R)
Test: ADP-Glo Biochemical PIK3CA Kinase Assay

H1047R PIK3CA enzyme, sequence (P42336 whole entry H1047R): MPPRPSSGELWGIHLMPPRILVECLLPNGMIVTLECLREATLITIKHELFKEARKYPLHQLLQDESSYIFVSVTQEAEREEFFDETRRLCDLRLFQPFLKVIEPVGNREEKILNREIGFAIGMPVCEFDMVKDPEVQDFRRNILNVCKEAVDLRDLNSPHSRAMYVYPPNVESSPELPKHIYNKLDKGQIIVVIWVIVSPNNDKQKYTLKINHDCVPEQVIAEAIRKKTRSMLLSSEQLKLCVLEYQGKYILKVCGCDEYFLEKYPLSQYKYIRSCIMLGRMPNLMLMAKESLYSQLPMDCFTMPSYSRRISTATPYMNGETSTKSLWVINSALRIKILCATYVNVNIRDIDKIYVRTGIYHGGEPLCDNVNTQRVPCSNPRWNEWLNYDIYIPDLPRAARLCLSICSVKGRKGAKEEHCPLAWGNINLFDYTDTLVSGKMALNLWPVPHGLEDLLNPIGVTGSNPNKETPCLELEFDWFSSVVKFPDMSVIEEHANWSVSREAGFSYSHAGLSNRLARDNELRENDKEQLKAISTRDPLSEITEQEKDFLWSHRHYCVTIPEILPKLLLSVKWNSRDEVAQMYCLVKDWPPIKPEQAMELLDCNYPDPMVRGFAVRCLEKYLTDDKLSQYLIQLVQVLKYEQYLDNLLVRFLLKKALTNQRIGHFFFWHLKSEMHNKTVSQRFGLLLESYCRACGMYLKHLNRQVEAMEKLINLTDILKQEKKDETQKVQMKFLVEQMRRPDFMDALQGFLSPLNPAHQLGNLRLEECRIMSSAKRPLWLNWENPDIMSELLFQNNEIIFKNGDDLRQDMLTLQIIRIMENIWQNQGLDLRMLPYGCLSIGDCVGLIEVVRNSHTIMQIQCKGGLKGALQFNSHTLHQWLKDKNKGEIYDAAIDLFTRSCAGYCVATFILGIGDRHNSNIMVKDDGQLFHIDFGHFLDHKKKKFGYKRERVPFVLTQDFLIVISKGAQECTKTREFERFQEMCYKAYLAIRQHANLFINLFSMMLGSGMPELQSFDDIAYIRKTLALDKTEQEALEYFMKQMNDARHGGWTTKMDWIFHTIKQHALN
H1047R PIK3CA enzyme, sequence (P27986 whole entry partner): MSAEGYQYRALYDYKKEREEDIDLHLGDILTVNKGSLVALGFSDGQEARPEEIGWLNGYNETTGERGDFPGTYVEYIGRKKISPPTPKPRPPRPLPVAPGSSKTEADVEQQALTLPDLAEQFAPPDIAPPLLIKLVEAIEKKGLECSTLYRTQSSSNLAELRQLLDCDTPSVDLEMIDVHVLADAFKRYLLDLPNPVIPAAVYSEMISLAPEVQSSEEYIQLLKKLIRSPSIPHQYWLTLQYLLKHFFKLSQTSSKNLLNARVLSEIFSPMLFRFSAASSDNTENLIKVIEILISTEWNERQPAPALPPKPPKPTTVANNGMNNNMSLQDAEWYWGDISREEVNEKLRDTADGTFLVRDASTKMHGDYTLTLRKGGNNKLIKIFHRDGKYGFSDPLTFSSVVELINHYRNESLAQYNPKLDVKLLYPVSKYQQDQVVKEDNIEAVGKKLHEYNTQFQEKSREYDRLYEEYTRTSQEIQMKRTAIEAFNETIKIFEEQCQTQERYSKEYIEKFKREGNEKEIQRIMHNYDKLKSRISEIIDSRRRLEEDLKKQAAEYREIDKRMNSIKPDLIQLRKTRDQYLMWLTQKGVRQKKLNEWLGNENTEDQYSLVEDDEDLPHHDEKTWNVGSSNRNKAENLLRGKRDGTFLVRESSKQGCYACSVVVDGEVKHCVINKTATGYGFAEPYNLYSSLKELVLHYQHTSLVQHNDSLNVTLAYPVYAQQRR

| Compound | IC50 |
| --- | --- |
| N#Cc1cnn(-c2cc(NC(=O)N3C[C@H](O)c4cc(F)ccc43)c3c(c2)C(=O)N[C@H]3c2cc(F)ccc2Cl)c1 [Compound I-2403] | ≤ 100 nM |
| O=C1NC(c2cc(F)ccc2Cl)c2c(NC(=O)c3csc4cocc34)cccc21 (centres unmarked) [Compound I-2301] | 10000 to 100000 nM |
| O=C1NC(c2cc(F)ccc2Cl)c2c(Nc3ncc(C(F)(F)F)cc3F)cc(Br)cc21 (centres unmarked) [Compound I-1118] | 500 to 1000 nM |
| O=C1N[C@@H](c2cc(F)ccc2Cl)c2c(NC(=O)N3C[C@H](O)C[C@@H](C(F)(F)F)C3)cccc21 (single isomer, unassigned) [Compound I-2237] | 1000 to 10000 nM |
| O=C1NC(c2cc(F)ccc2Cl)c2c(NC(=O)C3(c4ccccc4)CCCC3)cc(Br)cc21 (centres unmarked) [Compound I-604] | 1000 to 10000 nM |
| O=C1N[C@@H](c2cc(F)ccc2Cl)c2c(NC(=O)N3C[C@H](O)C[C@@H]3CC(F)(F)F)cccc21 (racemic) [Compound I-2162] | 1000 to 10000 nM |
| CCc1cc(C(=O)Nc2cc(Br)cc3c2C(c2ccccc2C)NC3=O)ccc1F (centres unmarked) [Compound I-640] | 1000 to 10000 nM |
| O=C1N[C@H](c2cc(F)ccc2Cl)c2c(NC(=O)N3C[C@](O)(C(F)(F)F)c4cc(F)ccc43)ccc(-n3cccn3)c21 (single isomer, unassigned) [Compound I-2494] | 1000 to 10000 nM |
| O=C1N[C@@H](c2cc(F)ccc2Cl)c2c(NC(=O)N3C[C@@H](O)c4cc(F)ccc43)cc(-n3ccccc3=O)cc21 (single isomer, unassigned) [Compound I-2351] | 100 to 500 nM |
| O=C(Nc1cc(Br)cc2c1C(c1cc(F)ccc1Cl)NC2=O)c1cc(C(F)(F)F)cs1 (centres unmarked) [Compound I-1428] | 1000 to 10000 nM |
| COc1c(Cl)cc(F)cc1C(=O)Nc1cc(Br)cc2c1C(c1cc(F)ccc1Cl)NC2=O (centres unmarked) [Compound I-834] | 1000 to 10000 nM |
| O=C1NC(c2cccc(F)c2F)c2c(NC(=O)c3nsc4ccccc34)ccnc21 (centres unmarked) [Compound I-175] | 500 to 1000 nM |
| O=C1N[C@@H](c2cc(F)ccc2Cl)c2c(NC(=O)[C@@H]3CCCCN3)cc(-c3ccc4ncnn4c3)cc21 (racemic) [Compound I-1780] | 10000 to 100000 nM |
| O=C(Nc1cc(Br)cc2c1C(c1cc(F)ccc1Cl)NC2=O)c1cc(Cl)ccc1Cl (centres unmarked) [Compound I-795] | 1000 to 10000 nM |
| O=C1N[C@@H](c2cc(F)ccc2Cl)c2c(NC(=O)N3C[C@@H](O)c4cc(F)ccc43)cc(Cl)cc21 (single isomer, unassigned) [Compound I-2401] | 10000 to 100000 nM |
| Cc1ccccc1-n1[nH]c(=O)c2cccc(NC(=O)c3nsc4ccccc34)c21 [Compound I-117] | 1000 to 10000 nM |
| O=C1NC(c2cc(F)ccc2Cl)c2c(Nc3ccc4ccccc4c3)cc(Br)cc21 (centres unmarked) [Compound I-1725] | 1000 to 10000 nM |
| O=C1NC(c2cc(F)ccc2Cl)c2c(NC(=O)N3CCc4cc(OC(F)(F)F)ccc43)cccc21 (centres unmarked) [Compound I-2481] | 1000 to 10000 nM |
| Cn1nc(Nc2cc(-c3ccc4ncnn4c3)cc3c2C(c2cc(F)ccc2Cl)NC3=O)c2cc(F)cc(C(F)(F)F)c21 (centres unmarked) [Compound I-2050] | 500 to 1000 nM |
| CS(=O)(=O)CC(O)c1cc(NC(=O)c2cc(F)cc(Cl)c2)c2c(c1)C(=O)NC2c1cc(F)ccc1Cl (centres unmarked) [Compound I-297] | 100 to 500 nM |
| O=C1NC(c2cc(F)ccc2Cl)c2c(NC(=O)C34CC5CC(F)(CC(F)(C5)C3)C4)cccc21 (centres unmarked) [Compound I-1180] | 100 to 500 nM |

| Compound | IC50 |
| --- | --- |
| O=C1N[C@H](c2cc(F)ccc2Cl)c2c(Nc3cn[nH]c3)cc(Br)cc21 (racemic) [Compound I-2183] | 10000 to 100000 nM |
| O=C1NC(c2cc(F)ccc2Cl)c2c(NC(=O)C3CCCc4ccccc43)cc(Br)cc21 (centres unmarked) [Compound I-631] | 1000 to 10000 nM |
| Cc1ccccc1C1NC(=O)c2cccc(NC(=O)c3cc(Cl)n4ccccc34)c21 (centres unmarked) [Compound I-69] | 100 to 500 nM |
| O=C1N[C@H](c2cc(F)ccc2Cl)c2c(NC(=O)[C@H]3C[C@H](O)C[C@@H](C(F)(F)F)C3)cccc21 (single isomer, unassigned) [Compound I-2178] | 10000 to 100000 nM |
| O=C1NC(c2cc(F)ccc2Cl)c2c(NC(=O)C3CCC(C(F)(F)F)CC3)cc(Br)cc21 (centres unmarked) [Compound I-1324] | 1000 to 10000 nM |
| O=C(Nc1cccc2c1C(c1cc(F)ccc1Cl)NC2=O)c1coc2c1COC2 (centres unmarked) [Compound I-2265] | 10000 to 100000 nM |
| COc1cnccc1-c1cc(NC(=O)c2cc(F)cc(Cl)c2)c2c(n1)C(=O)NC2c1cc(F)ccc1Cl (centres unmarked) [Compound I-505] | 100 to 500 nM |
| O=C1NC(c2cc(F)ccc2Cl)c2c(NC(=O)C3CCOc4ccccc43)cc(Br)cc21 (centres unmarked) [Compound I-605] | 10000 to 100000 nM |
| Cc1ccc2c(c1)CCN2C(=O)Nc1cccc2c1C(c1cc(F)ccc1Cl)NC2=O (centres unmarked) [Compound I-2440] | 10000 to 100000 nM |
| O=C1N[C@H](c2cc(F)ccc2Cl)c2c(NC(=O)[C@@H]3CCC[C@H](C(F)(F)F)C3)cc(-c3ccc4ncnn4c3)cc21 [Compound I-2031] | 1000 to 10000 nM |
| O=C(Nc1ccccc1Cl)Nc1ccnc2c1C(c1ccccc1Cl)NC2=O (centres unmarked) [Compound I-296] | 1000 to 10000 nM |
| Cc1ccccc1C1NC(=O)c2cccc(NC(=O)c3cc(F)n4ccccc34)c21 (centres unmarked) [Compound I-316] | 500 to 1000 nM |
| O=C(Nc1cc(-c2ccc3ncnn3c2)cc2c1[C@H](c1cc(F)c(F)cc1Cl)NC2=O)c1cc(F)cc(C(F)(F)F)c1 [Compound I-1059] | 1000 to 10000 nM |
| COc1cc(C(=O)Nc2cc(Br)cc3c2C(c2cc(F)ccc2Cl)NC3=O)ccc1F (centres unmarked) [Compound I-559] | 1000 to 10000 nM |
| Cc1ncc(-c2cc(NC(=O)c3cc(F)cc(Cl)c3)c3c(n2)C(=O)NC3c2cc(F)ccc2Cl)cn1 (centres unmarked) [Compound I-460] | 100 to 500 nM |
| Cc1ccccc1C1NC(=O)c2nccc(NC(=O)N3CCc4ccncc43)c21 (centres unmarked) [Compound I-251] | 10000 to 100000 nM |
| O=C1CCc2cc(F)cc(C(=O)Nc3cc(Br)cc4c3C(c3cc(F)ccc3Cl)NC4=O)c2N1 (centres unmarked) [Compound I-1546] | 10000 to 100000 nM |
| CC(C)(CC(F)(F)F)C(=O)Nc1cc(Br)cc2c1C(c1cc(F)ccc1Cl)NC2=O (centres unmarked) [Compound I-1619] | 10000 to 100000 nM |
| O=C1N[C@H](c2cc(F)ccc2Cl)c2c(NC(=O)N3C[C@@](O)(C(F)(F)F)c4ccccc43)cccc21 (single isomer, unassigned) [Compound I-2383] | 10000 to 100000 nM |
| O=C1NC(c2cc(F)ccc2Cl)c2c(NC(=O)c3nsc4ccccc34)cc(CO)cc21 (centres unmarked) [Compound I-154] | ≤ 100 nM |
| O=C1NC(c2cc(F)ccc2Cl)c2c(NC(=O)C3CC4(CCC4)C3)cc(Br)cc21 (centres unmarked) [Compound I-1362] | 1000 to 10000 nM |

Continued, values first:

| IC50 | Compound |
| --- | --- |
| ≤ 100 nM | O=C(Nc1cncc2c1C(c1cc(F)ccc1Cl)NC2=O)c1cc(F)cc(C(F)(F)F)c1 (centres unmarked) [Compound I-553] |
| ≤ 100 nM | O=C(Nc1cc(NC(=O)C(F)F)cc2c1C(c1cc(F)ccc1Cl)NC2=O)c1cc(F)cc(C(F)(F)F)c1 (centres unmarked) [Compound I-467] |
| ≤ 100 nM | O=C(Nc1cc(OCC(O)CCO)cc2c1C(c1cc(F)ccc1Cl)NC2=O)c1cc(F)cc(C(F)(F)F)c1 (centres unmarked) [Compound I-1414] |
| 500 to 1000 nM | CC1(Nc2cc(NC(=O)c3cc(F)cc(C(F)(F)F)c3)c3c(c2)C(=O)N[C@@H]3c2cc(F)ccc2Cl)COC1 [Compound I-829] |
| 100 to 500 nM | Cc1ccccc1C1NC(=O)c2cccc(NC(=O)c3nsc4ccc(F)cc34)c21 (centres unmarked) [Compound I-105] |
| 10000 to 100000 nM | O=C1NC(c2cc(F)ccc2Cl)c2c(C#Cc3cc(F)cc(C(F)(F)F)c3)cccc21 (centres unmarked) [Compound I-2187] |
| 10000 to 100000 nM | O=C(Nc1cccc2c1[C@H](C1CCCC[C@@H]1O)NC2=O)c1cc(F)cc(C(F)(F)F)c1 (single isomer, unassigned) [Compound I-2110] |
| 10000 to 100000 nM | O=C(Nc1cc(OC[C@@H]2CCO2)cc2c1[C@@H](c1cc(F)ccc1Cl)NC2=O)c1cc(F)cc(C(F)(F)F)c1 (single isomer, unassigned) [Compound I-1519] |
| ≤ 100 nM | O=Cc1cc(NC(=O)c2cc(F)cc(C(F)(F)F)c2)c2c(c1)C(=O)NC2c1cc(F)ccc1Cl (centres unmarked) [Compound I-333, N-(3-(2-Chloro-5-fluorophenyl)-6-formyl-1-oxoisoindolin-4-yl)-3-fluoro-5-(trifluoromethyl)benzamide] |
| 100 to 500 nM | O=C(Nc1cc(-c2cnn(S(=O)(=O)C(F)F)c2)cc2c1[C@@H](c1cc(F)ccc1Cl)NC2=O)c1cc(F)cc(C(F)(F)F)c1 [Compound I-2092] |
| ≤ 100 nM | CN(C)S(=O)(=O)Cc1cc(NC(=O)c2cc(F)cc(C(F)(F)F)c2)c2c(c1)C(=O)NC2c1cc(F)ccc1Cl (centres unmarked) [Compound I-1275] |
| 1000 to 10000 nM | O=C(Nc1cc(-c2ccc(=O)n(C3CC3)c2)nc2c1[C@@H](c1cc(F)ccc1Cl)NC2=O)c1cc(F)cc(C(F)(F)F)c1 [Compound I-746] |
| ≤ 100 nM | Cn1c(=O)[nH]c2ccc(-c3cc(NC(=O)c4cc(F)cc(C(F)(F)F)c4)c4c(c3)C(=O)NC4c3cc(F)ccc3Cl)cc21 (centres unmarked) [Compound I-1044] |
| 100 to 500 nM | COC1CN(c2cc(NC(=O)c3cc(F)cc(C(F)(F)F)c3)c3c(c2)C(=O)NC3c2cc(F)ccc2Cl)C1 (centres unmarked) [Compound I-728] |
| 100 to 500 nM | CC(C)(O)c1cc(NC(=O)c2cc(F)cc(C(F)(F)F)c2)c2c(n1)C(=O)NC2c1cc(F)ccc1Cl (centres unmarked) [Compound I-242] |
| 10000 to 100000 nM | O=C(Nc1cccc2c1C(c1cccc3cn[nH]c13)NC2=O)c1cc(F)cc(C(F)(F)F)c1 (centres unmarked) [Compound I-666] |
| 100 to 500 nM | Cc1ccccc1C1NC(=O)c2cccc(NC(=O)N3CCc4c(F)cc(F)cc43)c21 (centres unmarked) [Compound I-104] |
| 10000 to 100000 nM | N#Cc1ccc(C2NC(=O)c3cccc(NC(=O)c4cc(F)cc(C(F)(F)F)c4)c32)c(Cl)c1 (centres unmarked) [Compound I-422] |
| 1000 to 10000 nM | O=C(Nc1cc(-c2ccc3nnnn3c2)cc2c1[C@@H](c1cc(F)ccc1Cl)NC2=O)c1cc(F)cc(C(F)(F)F)c1 [Compound I-1452] |
| 10000 to 100000 nM | CC(C)(O)CNc1cc(NC(=O)c2cc(F)cc(C(F)(F)F)c2)c2c(c1)C(=O)N[C@H]2c1cc(F)ccc1Cl [Compound I-899] |
| ≤ 100 nM | O=C(Nc1cc(C#Cc2ccn[nH]2)cc2c1C(c1cc(F)ccc1Cl)NC2=O)c1cc(F)cc(C(F)(F)F)c1 (centres unmarked) [Compound I-1244] |
| 100 to 500 nM | O=C(Nc1cc(OC2CNC2)cc2c1C(c1cc(F)ccc1Cl)NC2=O)c1cc(F)cc(C(F)(F)F)c1 (centres unmarked) [Compound I-1252] |
| 100 to 500 nM | O=C(Nc1cc(Cn2cccn2)cc2c1[C@@H](c1cc(F)ccc1Cl)NC2=O)c1cc(F)cc(C(F)(F)F)c1 (stereo in doubt) [Compound I-1614] |
